Legend:
[1] = test system: large (Lg) crabgrass (Digitaria sanguinalis); assay: Test A postemergence; assay type: in vivo; settings: 0 to 100 scale
How it was run: (§1)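 Greenhouse pot test, loam/sand soil. Formulation: non-phytotoxic solvent mix plus surfactant. Pre: directed spray onto soil after sowing. Post: plants at 1–2 leaf, 2–10 cm. Rated visually vs untreated controls at ~10 d, 0 (no effect) to 100 (complete control).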

[2] = test system: morningglory (Ipomoea spp.); assay: Test A postemergence; assay type: in vivo; settings: 0 to 100 scale
How it was run: as §1

[3] = test system: velvetleaf (Abutilon theophrasti); assay: Test A postemergence; assay type: in vivo; settings: 0 to 100 scale
How it was run: as §1

[4] = test system: Italian ryegrass (Lolium multiflorum); assay: Test D preemergence; assay type: in vivo; settings: scale 0 to 100
Source text: (§2) Seeds of plant species selected from bluegrass (annual bluegrass, Poa annua), blackgrass (Alopecurus myosuroides), canarygrass (Phalaris minor), chickweed (common chickweed, Stellaria media), cutleaf geranium (Geranium dissectum), galium (catchweed bedstraw, Galium aparine), downy bromegrass (Bromus tectorum), field poppy (Papaver rhoeas), field violet (Viola arvensis), green foxtail (Setaria viridis), deadnettle (henbit deadnettle, Lamium amplexicaule), Italian ryegrass (Lolium multiflorum), kochia (Kochia scoparia), lambsquarters (Chenopodium album), oilseed rape (Brassica napus), pigweed (Amaranthus retroflexus), chamomile (scentless chamomile, Matricaria inodora), Russian thistle (Salsola kali), speedwell (bird's-eye speedwell, Veronica persica), spring barley (Hordeum vulgare), spring wheat (Triticum aestivum), wild buckwheat (Polygonum convolvulus), wild mustard (Sinapis arvensis), wild oat (Avenafatua), wild radish (Raphanus raphanistrum), windgrass (Apera spica-venti), winter barley (Hordeum vulgare), and winter wheat (Triticum aestivum) were planted into a silt loam soil and treated preemergence with test chemicals formulated in a non-phytotoxic solvent mixture which included a surfactant.
(§3) At the same time, these species were planted in pots containing Redi-Earth® planting medium (Scotts Company, 14111 Scottslawn Road, Marysville, Ohio 43041) comprising spaghnum peat moss, vermiculite, wetting agent and starter nutrients and treated with postemergence applications of the test chemicals formulated in the same manner. Plants ranged in height from 2 to 18 cm (1- to 4-leaf stage). Treated plants and controls were maintained in a controlled growth environment for 14 to 21 days after which time all species were compared to controls and visually evaluated. Plant response ratings, summarized in Table D, are based on a scale of 0 to 100 where 0 is no effect and 100 is complete control. A dash (-) response means no test result.

[5] = test system: blackgrass (Alopecurus myosuroides); assay: Test D preemergence; assay type: in vivo; settings: scale 0 to 100
Source text: as §2, §3

[6] = test system: cutleaf geranium (Geranium dissectum); assay: Test D preemergence; assay type: in vivo; settings: scale 0 to 100
Source text: as §2, §3

[7] = test system: green foxtail (Setaria viridis); assay: Test D preemergence; assay type: in vivo; settings: scale 0 to 100
Source text: as §2, §3

kochia (Kochia scoparia) = assay: Test D preemergence; assay type: in vivo; settings: scale 0 to 100
Source text: as §2, §3

[8] = test system: lambsquarters (Chenopodium album); assay: Test D preemergence; assay type: in vivo; settings: scale 0 to 100
Source text: as §2, §3

[9] = test system: pigweed (Amaranthus retroflexus); assay: Test D preemergence; assay type: in vivo; settings: scale 0 to 100
Source text: as §2, §3

[10] = test system: spring wheat (Triticum aestivum); assay: Test D preemergence; assay type: in vivo; settings: scale 0 to 100
Source text: as §2, §3

[11] = test system: wild radish (Raphanus raphanistrum); assay: Test D preemergence; assay type: in vivo; settings: scale 0 to 100
Source text: as §2, §3

wild oat (Avenafatua) = assay: Test D preemergence; assay type: in vivo, Avena fatua; settings: scale 0 to 100
Source text: as §2, §3

[12] = test system: field poppy (Papaver rhoeas); assay: Test D postemergence; assay type: in vivo; settings: scale 0 to 100
How it was run: (§4)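 Greenhouse herbicide screen. Pre: silt loam, spray at planting. Post: 1–4 leaf, 2–18 cm. Readout: visual % control (0–100) at 14–21 DAT vs controls.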

[13] = test system: lambsquarters (Chenopodium album); assay: Test D postemergence; assay type: in vivo; settings: scale 0 to 100
How it was run: as §4

[14] = test system: oilseed rape (Brassica napus); assay: Test D postemergence; assay type: in vivo; settings: scale 0 to 100
How it was run: as §4

[15] = test system: spring barley (Hordeum vulgare); assay: Test D postemergence; assay type: in vivo; settings: scale 0 to 100
How it was run: as §4

[16] = test system: windgrass (Apera spica-venti); assay: Test D postemergence; assay type: in vivo; settings: scale 0 to 100
How it was run: as §4

Compound: Clc1cnc(Oc2cccc(Br)c2Oc2ncc(Cl)cn2)nc1 [Compound 19, 2,2′-[[3-bromo-1,2-phenylene]bis(oxy)]bis[5-chloropyrimidine]]
- Plant response rating, Crabgrass, Large ([1]; 125 g ai/ha): 70
- Plant response rating, Crabgrass, Large ([1]; 500 g ai/ha): 90
- Plant response rating, Morningglory ([2]; 125 g ai/ha): 70
- Plant response rating, Morningglory ([2]; 500 g ai/ha): 100
- Plant response rating, Velvetleaf ([3]; 125 g ai/ha): 100
- Plant response rating, Velvetleaf ([3]; 500 g ai/ha): 100

Compound: Fc1cnc(Oc2c(F)cccc2Oc2ncc(Cl)cn2)nc1 [Compound 23]
- Plant response rating, Ryegrass, Italian ([4]; 16 g ai/ha): 5
- Plant response rating, Ryegrass, Italian ([4]; 31 g ai/ha): 10
- Plant response rating, Ryegrass, Italian ([4]; 62 g ai/ha): 35
- Plant response rating, Ryegrass, Italian ([4]; 125 g ai/ha): 75
- Plant response rating, Blackgrass ([5]; 16 g ai/ha): 20
- Plant response rating, Blackgrass ([5]; 31 g ai/ha): 30
- Plant response rating, Blackgrass ([5]; 62 g ai/ha): 70
- Plant response rating, Blackgrass ([5]; 125 g ai/ha): 85
- Plant response rating, Geranium, Cutleaf ([6]; 16 g ai/ha): 25
- Plant response rating, Geranium, Cutleaf ([6]; 31 g ai/ha): 100
- Plant response rating, Geranium, Cutleaf ([6]; 62 g ai/ha): 100
- Plant response rating, Geranium, Cutleaf ([6]; 125 g ai/ha): 100
- Plant response rating, Foxtail, Green ([7]; 16 g ai/ha): 0
- Plant response rating, Foxtail, Green ([7]; 31 g ai/ha): 5
- Plant response rating, Foxtail, Green ([7]; 62 g ai/ha): 55
- Plant response rating, Foxtail, Green ([7]; 125 g ai/ha): 100
- Plant response rating, Kochia (kochia (Kochia scoparia); 16 g ai/ha): 15
- Plant response rating, Kochia (kochia (Kochia scoparia); 31 g ai/ha): 60
- Plant response rating, Kochia (kochia (Kochia scoparia); 62 g ai/ha): 60
- Plant response rating, Kochia (kochia (Kochia scoparia); 125 g ai/ha): 100
- Plant response rating, Lambsquarters ([8]; 16 g ai/ha): 25
- Plant response rating, Lambsquarters ([8]; 31 g ai/ha): 100
- Plant response rating, Lambsquarters ([8]; 62 g ai/ha): 100
- Plant response rating, Lambsquarters ([8]; 125 g ai/ha): 100
- Plant response rating, Pigweed ([9]; 16 g ai/ha): 98
- Plant response rating, Pigweed ([9]; 31 g ai/ha): 100
- Plant response rating, Pigweed ([9]; 62 g ai/ha): 100
- Plant response rating, Pigweed ([9]; 125 g ai/ha): 100
- Plant response rating, Wheat, Spring ([10]; 16 g ai/ha): 0
- Plant response rating, Wheat, Spring ([10]; 31 g ai/ha): 5
- Plant response rating, Wheat, Spring ([10]; 62 g ai/ha): 30
- Plant response rating, Wheat, Spring ([10]; 125 g ai/ha): 45
- Plant response rating, Radish, Wild ([11]; 16 g ai/ha): 25
- Plant response rating, Radish, Wild ([11]; 31 g ai/ha): 70
- Plant response rating, Radish, Wild ([11]; 62 g ai/ha): 90
- Plant response rating, Radish, Wild ([11]; 125 g ai/ha): 100
- Plant response rating, Oat, Wild (wild oat (Avenafatua); 16 g ai/ha): 5
- Plant response rating, Oat, Wild (wild oat (Avenafatua); 31 g ai/ha): 15
- Plant response rating, Oat, Wild (wild oat (Avenafatua); 62 g ai/ha): 70
- Plant response rating, Oat, Wild (wild oat (Avenafatua); 125 g ai/ha): 98
- Plant response rating, Field Poppy ([12]; 16 g ai/ha): 50
- Plant response rating, Field Poppy ([12]; 31 g ai/ha): 70
- Plant response rating, Field Poppy ([12]; 62 g ai/ha): 75
- Plant response rating, Field Poppy ([12]; 125 g ai/ha): 80
- Plant response rating, Lambsquarters ([13]; 16 g ai/ha): 10
- Plant response rating, Lambsquarters ([13]; 31 g ai/ha): 30
- Plant response rating, Lambsquarters ([13]; 62 g ai/ha): 60
- Plant response rating, Lambsquarters ([13]; 125 g ai/ha): 60
- Plant response rating, Oilseed Rape ([14]; 16 g ai/ha): 30
- Plant response rating, Oilseed Rape ([14]; 31 g ai/ha): 65
- Plant response rating, Oilseed Rape ([14]; 62 g ai/ha): 75
- Plant response rating, Oilseed Rape ([14]; 125 g ai/ha): 95
- Plant response rating, Barley, Spring ([15]; 16 g ai/ha): 0
- Plant response rating, Barley, Spring ([15]; 31 g ai/ha): 5
- Plant response rating, Barley, Spring ([15]; 62 g ai/ha): 5
- Plant response rating, Barley, Spring ([15]; 125 g ai/ha): 10
- Plant response rating, Windgrass ([16]; 16 g ai/ha): 10
- Plant response rating, Windgrass ([16]; 31 g ai/ha): 10
- Plant response rating, Windgrass ([16]; 62 g ai/ha): 15
- Plant response rating, Windgrass ([16]; 125 g ai/ha): 20
